By pKa is commonly meant the pH at which an ionisable group is half protonated. Lower therefore signals a stronger acid or weaker base.

The text below walks through data of patent US12697376B2, “Cationic lipid compounds” (Guangzhou Anobri Pharmaceutical Co. Ltd., priority 2021, dated 2026).

Series [1] can be described thus: Determination of the pKa of the cationic lipid in lipid nanoparticles by TNS fluorescence. The format is physicochemical. To be noted: probe 2-(p-toluidine)-6-naphthalenesulfonic acid (TNS), 1 uM final, cationic lipid in LNP (cationic lipid/DSPC/cholesterol/PEG lipid 50/10/38/2 mol %), pH of half-maximal fluorescence. The procedure: (§1) Cationic lipids, DSPC, cholesterol, and PEG-lipids were dissolved in ethanol in molar ratios of 50:10:38:2 or 48:10:40:2. Lipid nanoparticles (LNPs) were prepared in a ratio of total lipid to mRNA by weight of about 10:1 to 30:1. Briefly, mRNA was diluted to 0.15 mg/ml in 10 to 50 ml of citrate buffer (pH=4). Using a syringe pump, an ethanolic solution of lipids was mixed with an aqueous mRNA solution in a ratio of approximately 1:5 to 1:3 by volume at a total flow rate of over 10 ml/min. Ethanol was then removed and the external buffer was replaced by dialysis-class PBS. Finally, the lipid nanoparticles were filtered through a sterile filter with a pore size of 0.2 um. The particle size of the lipid nanoparticles was approximately 65-105 nm in diameter and, in some cases, approximately 75-100 nm in diameter, determined by quasi-elastic light scattering using Malvern Zetasizer Nano ZS.
The pKa of the formulated cationic lipid correlates with the effectiveness of the LNP for nucleic acid delivery. The preferred pKa range is from 5 to 7. The pKa of each cationic lipid was determined in lipid nanoparticles using an analysis based on the fluorescence of 2-(p-toluidine)-6-naphthalenesulfonic acid (TNS). Lipid nanoparticles containing cationic lipids/DSPC/cholesterol/PEG lipids (50/10/38/2 mol %) at a concentration of 0.4 mM total lipid in PBS were prepared using an ordered method as described in Example 10. TNS was prepared as a 100 μM stock solution in distilled water. The vesicles were diluted to contain 24 uM lipid in a 2 mL buffer solution containing 10 mM HEPES, 10 mM MES, 10 mM acetic acid, and 130 mM NaCl, pH 2.5-11. Aliquots of 100 μM TNS stock solution were added to bring the final concentration to 1 uM. After vortex mixing, fluorescence intensity was measured in an SLM Aminco Series 2 luminescence spectrophotometer at room temperature using excitation and emission wavelengths of 321 nm and 445 nm. Fluorescence data were analyzed using a s-shaped curve fitting and pKa was determined by measuring the pH that produced half-maximal fluorescence intensity.

Series [2] concerns luciferase expression in the liver. As to the kind of experiment: In vivo luciferase mRNA expression in liver after tail vein injection of FLuc mRNA lipid nanoparticles. The arrangement: species or system mice. The note with it: liver 5 hours after administration, LNP 50% cationic lipid/10% DSPC/38% cholesterol/2% PEG-DMG; for Liver Luc @ 0.3 mg/kg dose: 0.3 mg mRNA/kg; for Liver Luc @ 1.0 mg/kg dose: 1.0 mg mRNA/kg. The procedure:
as §1
According to the guidelines set by the State Scientific and Technological Commission of The People's Republic of China, female C57BL/6 mice aged 6-8 weeks and CD-1 mice aged 8-10 weeks were used to perform the study. Various doses of mRNA lipid nanoparticles were administered by intravenous injection and the animals were euthanized at specific time points (e.g., 5 hours) post-administration. The liver and spleen were collected, weighed, immediately frozen in liquid nitrogen, and stored at −80° C. until being used for analysis.
For the liver, approximately 50 mg of liver tissue was cut and placed in 2 mL FastPrep tubes (MP Biomedicals, Solon OH) for analysis. ¼″ ceramic beads (MP Biomedicals) and 500 μL of room temperature Glo Lysis Buffer-GLB (Promega, Madison WI) were then added to each tube. The liver tissue was then homogenized for 15 seconds at a speed of 2×6.0 m/s using a FastPrep24 instrument (MP Biomedicals). The homogenates were incubated at room temperature for 5 minutes, then diluted with GLB in a ratio of 1:4, and finally evaluated using the SteadyGlo luciferase assay system (Promega). Specifically, 50 μL of diluted tissue homogenate was mixed with 50 μL of SteadyGlo substrate. The mixture was shaken for 10 seconds, then incubated at room temperature for 5 minutes, and subsequently quantified using a SpectraMAX_L chemiluminescent plate reader (Meigu Molecular Instrument (Shanghai) Co., Ltd.). The amount of protein was measured by using the BCA Protein Quantitation Kit (Shanghai Colorless Medical Technology Co., Ltd.). Relative luminescence units (RLU) were normalized to the total ug of the measured protein. To convert RLU into μg luciferase, a standard curve was generated using QuantiLum recombinant luciferase (Promega).
FLuc mRNA (L-6107) from Trilink Biotechnologies, which was originally isolated from fireflies (Photinus pyralis), will express luciferase protein. Fluc is commonly used in mammalian cell cultures to measure gene expression and cell viability. It emits biological light in the presence of the substrate luciferin. This capped and polyadenylated mRNA was completely replaced by 5-methylcytidine and pseudouridine.
For comparison purposes, these lipids were also used to formulate lipid nanoparticles containing FLuc mRNA (L-6107) using an ordered mixing method, as described in Example 10. Lipid nanoparticles were formulated with the following molar ratio: 50% cationic lipid/10% distearylphosphatidylcholine (DSPC)/38% cholesterol/2% PEG lipid (“PEG-DMG”, i.e., (1-(monomethoxy-polyethylene glycol)-2,3-dimyristoylglycerol, average PEG molecular weight 2000). As described in Example 10, relative activity was determined by measuring luciferase expression in the liver 5 hours after administration via tail vein injection. The activity was compared at doses of 0.3 and 1.0 mg mRNA/kg and expressed as ng luciferase/g liver measured 5 hours after administration as described in Example 10.

The compound `CCCCCCCCC(CCCCCC)C(=O)OCCCCCCN(CCCCO)CCCCCCOC(=O)C(C)(CCCCCC)CCCCCCCC` (stereo not drawn) [Compound 1] registered a pKa in series [1] of 6.25. In series [2], the “Liver Luc @ 0.3 mg/kg dose” value was 1424 ± 265 ng luciferase/g liver and the “Liver Luc @ 1.0 mg/kg dose” value came to 10318 ± 1304 ng luciferase/g liver.

Consider `CCCCCCCCC(CCCCCC)C(=O)OCCCCCCN(CCCCO)CCCCCCOC(=O)C(CC)(CCCCCC)CCCCCCCC` (stereo not drawn) [Compound 2], for which, in series [1], the pKa was found to be 5.91. In addition, in series [2], the “Liver Luc @ 0.3 mg/kg dose” value came out at 1469 ± 294 ng luciferase/g liver and the “Liver Luc @ 1.0 mg/kg dose” value is on record as 10671 ± 1912 ng luciferase/g liver.

On to `CCCCCCCCC(CCCCCC)C(=O)OCCCCCCN(CCCCO)CCCCCCOC(=O)C(CCC)(CCCCCC)CCCCCCCC` (stereo not drawn) [Compound 3], for which the pKa in series [1] was 6.22. Also, in series [2], the “Liver Luc @ 0.3 mg/kg dose” value is on record as 961 ± 469 ng luciferase/g liver and the “Liver Luc @ 1.0 mg/kg dose” value was determined as 6917 ± 642 ng luciferase/g liver.

Take `CCCCCCCCC(C)(CCCCCC)C(=O)OCCCCCCN(CCCCO)CCCCCCOC(=O)C(C)(CCCCCC)CCCCCCCC` (stereo not drawn) [Compound 4]: the pKa in series [1] was 6.12. In series [2], the “Liver Luc @ 0.3 mg/kg dose” value turned out to be 1179 ± 362 ng luciferase/g liver and the “Liver Luc @ 1.0 mg/kg dose” value was found to be 8630 ± 824 ng luciferase/g liver.

Regarding `CCCCCCCCC(C)(CCCCCC)C(=O)OCCCCCCN(CCCCO)CCCCCCOC(=O)C(CC)(CCCCCC)CCCCCCCC` (stereo not drawn) [Compound 5], in series [1], the pKa was found to be 5.89. In series [2], the “Liver Luc @ 0.3 mg/kg dose” value is 1424 ± 289 ng luciferase/g liver and the “Liver Luc @ 1.0 mg/kg dose” value amounted to 10372 ± 2096 ng luciferase/g liver.

In series [1], `CCCCCCCCC(C)(CCCCCC)C(=O)OCCCCCCN(CCCCO)CCCCCCOC(=O)C(CCC)(CCCCCC)CCCCCCCC` (stereo not drawn) [Compound 6] yielded a pKa of 6.13. In series [2], the “Liver Luc @ 0.3 mg/kg dose” value is 1628 ± 432 ng luciferase/g liver and the “Liver Luc @ 1.0 mg/kg dose” value was determined as 11753 ± 2598 ng luciferase/g liver.

In series [1], `CCCCCCCCC(CC)(CCCCCC)C(=O)OCCCCCCN(CCCCO)CCCCCCOC(=O)C(CC)(CCCCCC)CCCCCCCC` (stereo not drawn) [Compound 7] registered a pKa of 6.08. Further, in series [2], the “Liver Luc @ 0.3 mg/kg dose” value came to 1218 ± 359 ng luciferase/g liver and the “Liver Luc @ 1.0 mg/kg dose” value turned out to be 8914 ± 1487 ng luciferase/g liver.

As to `CCCCCCCCC(CC)(CCCCCC)C(=O)OCCCCCCN(CCCCO)CCCCCCOC(=O)C(CCC)(CCCCCC)CCCCCCCC` (stereo not drawn) [Compound 8], the pKa in series [1] turned out to be 5.98. In series [2], the “Liver Luc @ 0.3 mg/kg dose” value worked out at 985 ± 625 ng luciferase/g liver and the “Liver Luc @ 1.0 mg/kg dose” value is on record as 7188 ± 942 ng luciferase/g liver.

In series [1], `CCCCCCCCC(CCC)(CCCCCC)C(=O)OCCCCCCN(CCCCO)CCCCCCOC(=O)C(CCC)(CCCCCC)CCCCCCCC` (stereo not drawn) [Compound 9] returned a pKa of 6.05. In series [2], the “Liver Luc @ 0.3 mg/kg dose” value is reported as 1138 ± 265 ng luciferase/g liver and the “Liver Luc @ 1.0 mg/kg dose” value is 8443 ± 1045 ng luciferase/g liver.
